Measured values reported in patent US10683546B2, “Kit for predicting treatment with glucocorticoids and method comprising the same” (UNIVERSIDAD DE CHILE, priority 2015, dated 2020).
Several values for one entry are separate records, joined by “and”; a condition that tells them apart may be missing. Identical values can stand only once.

System: GRα mRNA levels in PBMC
Assay: Fold change ratio of GRα mRNA levels in PBMC of VKH patients after two weeks of prednisone (GC) treatment, RT-qPCR
Format: in vivo, human
Conditions: for Fold change ratio of GR levels in PBMC: after two weeks of Prednisone treatment vs baseline, oral 1 mg/Kg/day, 1 mg/kg/day; for GRα mRNA fold change median / GRα mRNA fold change range: two weeks of systemic GC therapy vs baseline
Method: 1) Obtainment of a 10-100 ml blood sample—preferably collected in the morning by automatic aspiration (vacutainer®) or manual (disposable syringe) methods. As an alternative or complementarily, the affected tissue or cell type may be completely or partially removed in order to carry out measurements.
2) After obtaining the sample, peripheral mononuclear cells (PBMC) are procured by the Ficoll gradient method, where a hydrophilic polysaccharide allows separating blood components into plasma, PBMC and erythrocytes. Alternatively or complementarily, the isolation of specific cell sub-types, such as CD4+, CD14+, CD8+cells, among others, may be conducted using a strategy based on magnetic microbeads or cell sorting by flow cytometry.
3) Subsequently, total RNA is extracted (Life Technologies, Inc.) by the TRIZOL method. For the obtainment of cDNA, 0.5 to 2 μg RNA is used as a template. Reverse transcription is performed preferably with kit ImProm-II™ Reverse Transcription System (Promega): a reaction mixture is prepared with 0.5 to 2 μg RNA, 1 μL Random Hexamers, 4 μL 5× ImProm-II™ RT buffer up to a final 20 μL volume, which is then incubated at 70° C. for 5 minutes, 4° C. for 5 minutes, 25° C. for 5 minutes, 42° C. for 60 minutes and 25° C. for 5 minutes.
4) cDNA is amplified using primers specific for GRα isoform: 5′-[…]-3′ (sense, SEQ ID NO: 1) and 5′-[…]-3′ (antisense, SEQ ID NO: 2) that correspond to nucleotides 2158-2178 and 2616-2635 of GRα cDNA.
5) For the amplification, a cDNA polymerase is used, preferably, the enzyme Go Taq® Flexi DNA Polymerase (Promega), starting the reaction with an initial 5 minute incubation at 95° C., followed then by 30 cycles as detailed: 95° C. for 30 seconds, 60° C. for 30 seconds and 72° C. for 30 seconds. For quantification by Real-Time qPCR a fluorophore is used, using preferably SYBR Green as fluorophore. GR measurements are made in duplicate. Finally, the results are standardized according to the expression of 18s rDNA gene that codes for the 18s ribosomal subunit.
6) Repetition of GRα mRNA level assessment according to the described protocol is carried out two weeks after initiating GC treatment. An increase is observed in GRα expression in sensitive patients and a reduction of the same in resistant patients (median of 5.5 versus 0.7, respectively).
7) Calculation of fold change ratio in GRα mRNA levels between the initial assessment and a later assessment after 2 weeks of GC treatment. GR fold change ratio=GR mRNA-2 weeks/GR mRNA at baseline
The method described in the present invention has been assessed in a group of 21 patients with Vogt-Koyanagi-Harada (VKH) disease, a specific uveitis subtype.
Cases: 13 patients affected by VKH with an inadequate response to oral treatment with 1 mg/Kg/day prednisone, in two separate doses, ⅔ of the daily dose in the morning and ⅓ of the dose in the afternoon.
Controls: 8 patients affected by VKH with an adequate response to the oral treatment with 1 mg/Kg/day prednisone, in two separate doses, ⅔ of the daily dose in the morning and ⅓ of the dose in the afternoon.
An analysis was conducted on the fold change ratio of GR transcript expression two weeks after treatment initiation, in comparison with baseline levels (prior to treatment initiation), segregating in accordance with the clinical response during follow-up. To calculate this fold change ratio, an arithmetic operation is conducted, that consists in dividing the GR levels obtained two weeks after the treatment and the baseline or initial GR levels. GR fold change ratio=GR mRNA-2 weeks/GR mRNA at baseline

[1] = patients clinically sensitive to GC

C[C@]12C=CC(=O)C=C1CC[C@@H]1[C@@H]2C(=O)C[C@@]2(C)[C@H]1CC[C@]2(O)C(=O)CO [Prednisone, prednisone]
Fold change ratio of GR levels in PBMC (individual patients with Vogt-Koyanagi-Harada disease clinically Resistant to GC): 0.667 and 0.225 and 0.243 and 0.841 and 0.759 | Fold change ratio of GR levels in PBMC (individual patients with Vogt-Koyanagi-Harada disease clinically Sensitive to GC): 5.21 and 8.49 and 2.53 and 0.237 and 17.8 and 15 and 5.52 | GRα mRNA fold change median [1]: 5.5 | GRα mRNA fold change range [1]: 0.23-17.8 | GRα mRNA fold change median (patients resistant to GC): 0.7 | GRα mRNA fold change range (patients resistant to GC): 0.22-0.84
